Test results as given in patent US20060217375A1, “New compounds” (priority 2004, published 2006).

How the values were obtained:
human OX-1R = target: T1, human OX-1R (Homo sapiens, UniProt O43613); assay: Functional Ki determination: inhibition of orexin-A induced Ca2+ release (FLIPR, Fluo-4AM) in HEK293EBNA cells stably expressing OX-1R; assay type: cell-based
T1 construct: expressed in transfected cells; host or cells: HEK293EBNA
T1 sequence (O43613 1-425): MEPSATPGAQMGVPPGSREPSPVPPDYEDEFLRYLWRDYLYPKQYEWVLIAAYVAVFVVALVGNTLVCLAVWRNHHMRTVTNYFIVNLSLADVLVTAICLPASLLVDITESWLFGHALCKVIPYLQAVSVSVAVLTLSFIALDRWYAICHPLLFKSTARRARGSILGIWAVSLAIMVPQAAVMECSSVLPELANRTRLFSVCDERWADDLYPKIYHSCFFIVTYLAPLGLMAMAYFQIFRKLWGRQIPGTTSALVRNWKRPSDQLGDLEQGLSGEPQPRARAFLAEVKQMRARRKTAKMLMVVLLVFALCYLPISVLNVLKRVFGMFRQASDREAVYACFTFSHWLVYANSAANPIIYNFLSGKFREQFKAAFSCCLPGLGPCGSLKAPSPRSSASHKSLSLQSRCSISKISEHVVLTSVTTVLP
Method: Human embryonic kidney (HEK293EBNA) cells stably expressing OX-1R seeded in 96- or 384-well plates are pre-loaded with Ca^2+ sensing probe Fluo-4AM fluorescent dye for 60 min before addition of test compounds (10 μM for primary screen). Fluorescent intensity, which is a measurement of Ca^2+ concentration inside the cells, is recorded using a Fluorometric imaging plate reader (FLIPR 98R 96-well format or FLIPR 3, 384-well format, Molecular Devices) and inhibition of the peak response evoked by orexin-A (EC70 concentration) is calculated. Potency (Ki) determinations are performed utilizing the same functional assay as described for primary screening, applying the compounds in the concentration range of 340 pM to 20 μM and recording the concentration resulting in a 50% inhibition of orexin-A induced Ca^2+ release (IC50) and from there calculating the inhibition constant (Ki).
The calculation of the functional Ki values for the inhibitors was performed by use of Activity Base. The Ki value is calculated from IC50 using the Cheng Prushoff equation (with reversible inhibition that follows the Michaelis-Menten equation): Ki=IC50/(1+[S]/Km) (Cheng, Y. C. & Prushoff, W. H. (1973) Biochem. Pharmacol. 22:3099-3108).

ob/ob mice = details: 30 mg/kg i.p. once daily for 7 days plus twice daily for another 7 days; cited from earlier work
rats = details: i.p.; cited from earlier work

Q: Which Ki (human OX-1R) does the source give for COc1cc(-c2ccc3c(c2)COC2(CCNCC2)O3)cc(OC)c1OC [Example 2, 6-[3,4,5-trimethoxyphenyl]-4H-spiro[1,3-benzodioxine-2,4′-piperidine]] here?
A: 349 nM

Q: For COc1cc(-c2ccc3c(c2)OC2(CCNCC2)O3)cc(OC)c1OC [Example 4, 5-(3,4,5-trimethoxyphenyl)spiro[1,3-benzodioxole-2,4′-piperidine]], which Ki (human OX-1R) is on record?
A: 823 nM

Q: With O=C(COc1cccc(-c2ccc3c(c2)COC2(CCNCC2)O3)c1)Nc1ccccc1 [Example 8, N-phenyl-2-[3-(4H-spiro[1,3-benzodioxine-2,4′-piperidin]-6-yl)phenoxy]acetamide] as the molecule, how does the Ki (human OX-1R) read?
A: 253 nM

Q: Which results are given for Cc1nc2ccc(NC(=O)Nc3ccnc4cccnc34)cc2o1 [SB-334867]?
A: body weight gain (ob/ob mice): suppressed; cumulative food intake (ob/ob mice): suppressed; lean body mass (ob/ob mice): unchanged; total fat mass (ob/ob mice): reduced; behavioral satiety sequence (rats): advances the behavioral satiety sequence increasing the time the animals spend resting
